Data as given in ChEMBL document CHEMBL1129985, “Cytotoxicity and antiestrogenicity of a novel series of basic diphenylethylenes” (J Med Chem, 1997).

Key:
[1] = target: Estrogen receptor (Homo sapiens, UniProt Q92731+P03372); conditions: mvln
[2] = test system: MCF7; assay: Cytotoxicity against MCF-7 cells in the absence of 1 uM E2 (estradiol); format: functional, Homo sapiens
[3] = test system: MCF7; assay: Cytostaticity against MCF-7 cells in the presence of 1 uMolar E2 (estradiol); format: functional, cell-based; conditions: Homo sapiens
[4] = test system: MCF7; assay: Cytotoxicity against MCF-7 cells in presence of 1 uM E2 (estradiol); format: functional, Homo sapiens
[5] = target: Estrogen receptor (Ovis aries) (UniProt P49885+Q9TU15); assay: Relative binding affinity for estrogen receptor in lamb uterus cytosol relative to estradiol; format: protein assay

SMILES	IC50 [1]	IC50 [3]	relative binding affinity (RBA) [5]	Cytotoxicity [2]	Cytotoxicity [4]
CCN(CC)CCOc1ccc(/C(=C/C(C)C)c2ccc(O)cc2)cc1	1700 nM	1700 nM	–	8.4 µM	8.8 µM
CCN(CC)CCOc1ccc(/C(=C\C(C)C)c2ccc(O)cc2)cc1	500 nM	2400 nM	–	9.2 µM	9.4 µM
CC/C(=C(\c1ccccc1)c1ccc(OCCN(C)C)cc1)c1ccccc1 [TAMOXIFEN]	–	8000 nM	–	9.8 µM	13 µM
CC/C(=C(\c1ccc(O)cc1)c1ccc(OCCN(C)C)cc1)c1ccccc1	–	8000 nM	–	6 µM	9.4 µM
CC(C)N(CCOc1ccc(C(=C2CCCCC2)c2ccc(OCCN(C(C)C)C(C)C)cc2)cc1)C(C)C	2100 nM	4200 nM	–	30 µM	8 µM
CCCCC/C=C(\c1ccc(O)cc1)c1ccc(OCCN(C)C)cc1	1800 nM	1700 nM	–	2.9 µM	3 µM
CCCCC/C=C(/c1ccc(O)cc1)c1ccc(OCCN(C)C)cc1	1500 nM	2400 nM	–	8.5 µM	9.3 µM
CCCCCCCCCCCCCC/C=C(\c1ccc(O)cc1)c1ccc(OCCN(CC)CC)cc1	9500 nM	8000 nM	–	30 µM	30 µM
CCCC/C=C(/c1ccc(O)cc1)c1ccc(OCCN(CC)CC)cc1	500 nM	1700 nM	–	4.4 µM	5.2 µM
CCN(CC)CCOc1ccc(/C(=C/Cc2ccccc2)c2ccc(O)cc2)cc1	1700 nM	1700 nM	–	2.9 µM	3 µM
CC(C)N(CCOc1ccc(C(=C2CCCCC2)c2ccc(O)cc2)cc1)C(C)C	200 nM	1800 nM	–	3.8 µM	5 µM
CCN(CC)CCOc1ccc(/C(=C\Cc2ccccc2)c2ccc(O)cc2)cc1	1300 nM	1800 nM	–	3.2 µM	4.3 µM
CCCCCCCC/C=C(/c1ccc(O)cc1)c1ccc(OCCN(CC)CC)cc1	3500 nM	1700 nM	–	5.1 µM	2.9 µM
CCCC/C(CC)=C(/c1ccc(O)cc1)c1ccc(OCCN(CC)CC)cc1.CCCC/C(CC)=C(\c1ccc(O)cc1)c1ccc(OCCN(CC)CC)cc1	150 nM	1000 nM	–	2.8 µM	2.8 µM
CCCCCCCCCCCCCC/C=C(/c1ccc(O)cc1)c1ccc(OCCN(CC)CC)cc1	8000 nM	7900 nM	–	30 µM	30 µM

More lines, main results first:

IC50 [1]	IC50 [3]	relative binding affinity (RBA) [5]	SMILES	Cytotoxicity [2]	Cytotoxicity [4]
6000 nM	700 nM	–	CCCCCC=C(c1ccc(OCCN(CC)CC)cc1)c1ccc(OCCN(CC)CC)cc1	2.7 µM	1.3 µM
1900 nM	1600 nM	–	CCCCCC/C=C(/c1ccc(O)cc1)c1ccc(OCCN(CC)CC)cc1	2.9 µM	3 µM
2500 nM	1200 nM	–	CCCCCC/C=C(\c1ccc(O)cc1)c1ccc(OCCN(CC)CC)cc1	2.8 µM	3.8 µM
4700 nM	1600 nM	–	CCCCCCCC/C=C(\c1ccc(O)cc1)c1ccc(OCCN(CC)CC)cc1	3.6 µM	3 µM
3200 nM	1100 nM	0.1	CCCCC/C=C(\c1ccc(O)cc1)c1ccc(OCCN(CC)CC)cc1	2.7 µM	3.2 µM
3100 nM	1600 nM	–	CC(C)C=C(c1ccc(OCCN(C(C)C)C(C)C)cc1)c1ccc(OCCN(C(C)C)C(C)C)cc1	3.6 µM	4.5 µM
900 nM	1600 nM	–	CCCCC/C=C(/c1ccc(O)cc1)c1ccc(OCCN(CC)CC)cc1	2.9 µM	3.2 µM
1500 nM	1600 nM	–	CCCC/C=C(\c1ccc(O)cc1)c1ccc(OCCN(CC)CC)cc1	2.9 µM	3 µM
3300 nM	1600 nM	–	CCCCC/C=C(\c1ccc(O)cc1)c1ccc(OCCN2CCCC2)cc1	2.9 µM	2.9 µM
